Data published in US10195156B2, “Compounds and compositions for intracellular delivery of agents” (ModernaTX, Inc., priority 2015, dated 2019).

What was measured:
[1] = Particle size and polydispersity index of nanoparticle compositions (Zetasizer Nano ZS); type: physicochemical; conditions: for particle size, rank within the named table (in words): comparison amongst compositions
In short: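 Particle size and PDI were measured on a Zetasizer Nano ZS with the nanoparticle compositions dispersed in 1×PBS.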

[2] = Encapsulation efficiency of RNA (QUANT-IT RIBOGREEN RNA assay); type: physicochemical; conditions: for encapsulation efficiency, rank within the named table (in words): comparison amongst compositions
In short: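 Nanoparticle samples diluted to ~5 μg/mL RNA in TE buffer (pH 7.5), incubated with or without 2% Triton X-100 solution at 37 °C for 15 min, then RiboGreen added. Fluorescence read at ~480/520 nm, blank-subtracted; free RNA % = intact over Triton-disrupted signal.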

[3] = pKa of nanoparticle compositions; type: physicochemical
[4] = system: luciferase (Luc) mRNA expression; test: Expression of Luc induced by sample formulations, whole-body bioluminescence after intravenous administration; type: in vivo; conditions: mice, i.v., 0.5 mg/kg
In short: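 Mice (n=6) dosed intravenously with Luc mRNA nanoparticle formulations at 0.5 mg/kg. Whole-body bioluminescence measured at 3, 6 and 24 h. Standard MC3 formulation and PBS control run alongside.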

[5] = system: modified luciferase expression; test: Expression of Luc in different organs (liver, lung, spleen, femur) 6 hours after intravenous administration; type: in vivo; conditions: i.v., 0.5 mpk
Method: The efficacy of the nanoparticle compositions presented in Tables 1, 1a, 17-1, 19-1, 20-1 and 21-1 was further evaluated by measuring the expression of modified luciferase in the liver, lung, spleen, and femur upon administration of a given composition. Formulations were administered intravenously to mice (n=3) at a dosage of 0.5 mpk and bioluminescence measured after 6 hours. The standard MC3 formulation and a PBS control were also tested.

IL-6 = test: Cytokine production induced by sample formulations: IL-6; type: in vivo; conditions: mice, i.v., 0.5 mpk, 6 hours, in pg/mL (unit assumed)
In short: (§1)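 Mice received nanoparticle formulations intravenously at 0.5 mpk, with standard MC3 formulation and PBS as controls. Cytokine concentrations were measured 6 hours after dosing.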

IP-10 = test: Cytokine production induced by sample formulations: IP-10; type: in vivo; conditions: mice, i.v., 0.5 mpk, 6 hours; for IP-10: in pg/mL (unit assumed)
In short: as §1

[6] = Table 1, * formulated with lipid:DSPC:Chol:PEG-DMG 50:10:38.5:1.5
[7] = Table 1, * lipid:DSPC:Chol:PEG-DMG 50:10:38.5:1.5
[8] = Table 20-1, rows without footnote mark
[9] = Table 1, rows without footnote mark
[10] = Table 1, rows without footnote mark (lipid:DOPE:cholesterol:PEG-DMG 40:20:38.5:1.5, Luc mRNA; MC3 standard formulation)

SMILES	IL-6 (IL-6; Table 4)	IP-10 (IP-10; Table 4)	PDI [1, 8]	Size (nm) [1, 8]	EE (%) [2, 8]	pKa [3, 8]	IL-6 (IL-6; Table 20-4, formula (20-I))	IP-10 (IP-10; Table 20-4, formula (20-I))	Total Flux 3 hours ([4]; Table 2)	Total Flux 6 hours ([4]; Table 2)	Total Flux 24 hours ([4]; Table 2, 24 hours)	Total Flux Liver ([5]; Table 3, mice)	Total Flux Lung ([5]; Table 3, mice)	Total Flux Spleen ([5]; Table 3, mice)	Total Flux 3 hours ([4]; Table 20-2)	Total Flux 6 hours ([4]; Table 20-2)	Total Flux 24 hours ([4]; Table 20-2, 24 hours)	Total Flux Liver ([5]; Table 20-3, mice)	Total Flux Lung ([5]; Table 20-3, mice)	Total Flux Spleen ([5]; Table 20-3, mice)	further results
CCCCCCCCCN(CCCCCCCCC)CCN(CCCCCCCCC)CCN1CCNCC1 [Compound 36, N^1,N^1,N^2-Trinonyl-N^2-(2-(piperazin-1-yl)ethyl)ethane-1,2-diamine]	41	118	–	–	–	–	–	–	6.90E+05	3.93E+05	1.68E+05	5.85E+04	2.74E+04	1.24E+05	–	–	–	–	–	–	Size (nm) [1, 6]: 100.8 nm; PDI [1, 7]: 0.110; EE (%) [2, 7]: 100.2%; encapsulation efficiency, rank within the named table (in words) [2]: highest; pKa [3, 7]: 7.81; total flux after 24 hours, rank within the named table (in words) ([4]; 24 hours): lowest flux after 24 hours; IP-10 induction, rank or comparison with IL-6 (in words) (IP-10): lowest IP-10 expression
CCCCCCCCCCCCCCN(CCCCCCCCCCCCCC)CCN(CCCCCCCCCCCCCC)CCN1CCN(CCN(CCCCCCCCCCCCCC)CCCCCCCCCCCCCC)CC1 [Compound 32, N^1-(2-(4-(2-(Ditetradecylamino)ethyl)piperazin-1-yl)ethyl)-N^1,N^2,N^2-tritetradecylethane-1,2-diamine]	174	727	–	–	–	–	–	–	6.85E+08	5.88E+08	4.37E+07	8.36E+07	6.75E+05	9.38E+05	–	–	–	–	–	–	PDI [1, 9]: 0.160; Size (nm) [1, 10]: 79.3 nm; EE (%) [2, 9]: 83.6%; pKa [3, 9]: 6.28; Total Flux Femur ([5]; Table 3, mice): 1.02E+05
CCCCC/C=C\C/C=C\CCCCCCCCN(CCCCCCCC/C=C\C/C=C\CCCCC)CCOC [Compound 17-9, (9Z,12Z)—N-(2-Methoxyethyl)-N-((9Z,12Z)-octadeca-9,12-dien-1-yl)octadeca-9,12-dien-1-amine]	–	–	–	–	–	–	–	–	–	–	–	–	–	–	–	–	–	–	–	–	PDI ([1]; Table 17-1): 0.138; Size (nm) ([1]; Table 17-1): 87.1 nm; EE (%) ([2]; Table 17-1): 95.0%; pKa ([3]; Table 17-1): 4.93; Total Flux 3 hours ([4]; Table 17-2): 6.87E+06; Total Flux 6 hours ([4]; Table 17-2): 9.97E+06; Total Flux 24 hours ([4]; Table 17-2, 24 hours): 3.43E+05; Total Flux Femur ([5]; Table 17-3, mice): 2.29E+04; Total Flux Liver ([5]; Table 17-3, mice): 1.39E+06; Total Flux Lung ([5]; Table 17-3, mice): 1.40E+04; Total Flux Spleen ([5]; Table 17-3, mice): 3.72E+05; IL-6 (IL-6; Table 17-4): 35.2; IP-10 (IP-10; Table 17-4): 112
CCCCC/C=C\C/C=C\CCCCCCCCN(CCCCCCCCCCCC)CCN1CCN(CCN(CCCCCCCCCCCC)CCN(CCCCCCCCCCCC)CCCCCCCCCCCC)CC1 [Compound 27, N^1,N^1,N^2-Tridodecyl-N^2-(2-(4-(2-(dodecyl((9Z,12Z)-octadeca-9,12-dien-1-yl)amino)ethyl)piperazin-1-yl)ethyl)ethane-1,2-diamine]	42	2564	–	–	–	–	–	–	4.56E+09	4.70E+09	1.36E+08	7.84E+08	3.56E+06	3.34E+06	–	–	–	–	–	–	PDI [1, 9]: 0.211; Size (nm) [1, 10]: 86.4 nm; EE (%) [2, 9]: 97.9%; pKa [3, 9]: 6.14
CCCCCCCCCCCCCCN(CCO)CCCCCCCCCCCCCC [Compound 17-7, 2-(Ditetradecylamino)ethan-1-ol]	–	–	–	–	–	–	–	–	–	–	–	–	–	–	–	–	–	–	–	–	PDI ([1]; Table 17-1): 0.110; Size (nm) ([1]; Table 17-1): 68.5 nm; particle size, rank within the named table (in words) [1]: smallest particles; EE (%) ([2]; Table 17-1): 95.6%; pKa ([3]; Table 17-1): 5.68; Total Flux 3 hours ([4]; Table 17-2): 4.68E+05; Total Flux 6 hours ([4]; Table 17-2): 6.82E+05; Total Flux 24 hours ([4]; Table 17-2, 24 hours): 5.46E+05; Total Flux Liver ([5]; Table 17-3, mice): 7.44E+04; Total Flux Lung ([5]; Table 17-3, mice): 1.35E+04; Total Flux Spleen ([5]; Table 17-3, mice): 3.46E+04; IL-6 (IL-6; Table 17-4): 49.9; IP-10 (IP-10; Table 17-4): 100
CCCCCCCC/C=C\CCCCCCCCN(CCCCCCCC/C=C\CCCCCCCC)CCN(CCCCCCCC/C=C\CCCCCCCC)CCN1CCN(CCN(CCCCCCCCCCCC)CCCCCCCCCCCC)CC1 [Compound 33, N^1-(2-(4-(2-(Didodecylamino)ethyl)piperazin-1-yl)ethyl)-N^1,N^2,N^2-tri((Z)-octadec-9-en-1-yl)ethane-1,2-diamine]	37	1577	–	–	–	–	–	–	1.64E+09	4.71E+09	1.54E+08	6.15E+08	2.84E+06	4.82E+06	–	–	–	–	–	–	PDI [1, 9]: 0.138; Size (nm) [1, 10]: 79.7 nm; EE (%) [2, 9]: 98.1%; pKa [3, 9]: 6.06; Total Flux Femur ([5]; Table 3, mice): 1.18E+06

Second part, led by results:

IL-6 (IL-6; Table 4)	IP-10 (IP-10; Table 4)	PDI [1, 8]	Size (nm) [1, 8]	EE (%) [2, 8]	pKa [3, 8]	IL-6 (IL-6; Table 20-4, formula (20-I))	IP-10 (IP-10; Table 20-4, formula (20-I))	SMILES	Total Flux 3 hours ([4]; Table 2)	Total Flux 6 hours ([4]; Table 2)	Total Flux 24 hours ([4]; Table 2, 24 hours)	Total Flux Liver ([5]; Table 3, mice)	Total Flux Lung ([5]; Table 3, mice)	Total Flux Spleen ([5]; Table 3, mice)	Total Flux 3 hours ([4]; Table 20-2)	Total Flux 6 hours ([4]; Table 20-2)	Total Flux 24 hours ([4]; Table 20-2, 24 hours)	Total Flux Liver ([5]; Table 20-3, mice)	Total Flux Lung ([5]; Table 20-3, mice)	Total Flux Spleen ([5]; Table 20-3, mice)	further results
–	–	0.118	96.1 nm	97.5%	5.38	46.9	1700.5	CCCCCCCCCCCCCCN(CCCCCCCCCCCCCC)CCN(CCCO)CCCCCCCCCCCC [Compound 20-11, 3-((2-(Ditetradecylamino)ethyl)(dodecyl)amino)propan-1-ol]	–	–	–	–	–	–	1.44E+09	8.83E+08	2.40E+07	3.60E+08	5.86E+05	9.24E+06	–
134	919	–	–	–	–	–	–	CCCCCCCC/C=C\CCCCCCCCN(CCCCCCCC/C=C\CCCCCCCC)CCN(CCCCCCCC/C=C\CCCCCCCC)CCN1CCNCC1 [Compound 40, N^1,N^1,N^2-Tri((Z)-octadec-9-en-1-yl)-N^2-(2-(piperazin-1-yl)ethyl)ethane-1,2-diamine]	1.24E+08	1.07E+07	5.62E+06	1.33E+06	1.42E+05	5.68E+05	–	–	–	–	–	–	Size (nm) [1, 6]: 78.9 nm; PDI [1, 7]: 0.210; EE (%) [2, 7]: 100.0%; encapsulation efficiency, rank within the named table (in words) [2]: highest; pKa [3, 7]: 6.78
–	–	0.130	64.5 nm	95.9%	6.22	152.1	271.1	CCCCCCCCCCCCN(CCCCCCCCCCCC)CCN(CCO)CCCCCCCC(=O)OC(CCCCCCCC)CCCCCCCC [Compound 20-9, Heptadecan-9-yl 8-((2-(didodecylamino)ethyl)(2-hydroxyethyl)amino)octanoate]	–	–	–	–	–	–	3.65E+08	6.91E+08	4.81E+07	1.57E+08	1.30E+06	5.11E+06	particle size, rank within the named table (in words) [1]: smallest particles; Total Flux Femur ([5]; Table 20-3, mice): 2.89E+05
–	–	0.238	78.6 nm	84.7%	5.78	68.4	900.4	CCCCCCCCCCCCN(CCCO)CCN(CCCCCCCCCCCC)CCCCCCCCCCCC [Compound 20-21, 3-((2-(Didodecylamino)ethyl)(dodecyl)amino)propan-1-ol]	–	–	–	–	–	–	1.43E+09	1.02E+09	1.13E+08	1.27E+08	1.98E+05	2.20E+06	–
